Reference: patent US20260250257A1, “ANTIBACTERIAL AND SYNERGISTIC ACTIVE COMPOUND AND USE THEREOF” (EAST CHINA UNIVERSITY OF SCIENCE AND TECHNOLOGY, priority 2023, published 2026)

Assays:
Format in all cases: cell-based
[1] = tested on: ATCC25922 strain (Escherichia coli); assay: Checkerboard antibacterial synergistic activity test with polymyxin E (FIC); set-up: key: FIC≤0.5 synergy; 0.5–1 additive; 1–2 indifferent; ≥2 antagonism; settings: combined with polymyxin E
Procedure, shortened: (§1)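 Checkerboard in MH broth: colistin dilutions 16→0.015 μg/ml × test drug 256→4 μg/ml (concentrations before adding inoculum); drug mix plus bacteria, 37° C., 16 h. FIC cut-offs: ≤0.5 synergy; 0.5–1 additive; 1–2 indifferent; ≥2 antagonism.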

[2] = tested on: ATCC19606 strain (Acinetobacter baumannii); assay: as above; set-up: key: FIC≤0.5 synergy; 0.5–1 additive; 1–2 indifferent; ≥2 antagonism; settings: combined with polymyxin E
Procedure, shortened: as §1

[3] = tested on: ATCC13883 strain (Klebsiella pneumoniae); assay: as above; set-up: key: FIC≤0.5 synergy; 0.5–1 additive; 1–2 indifferent; ≥2 antagonism; settings: combined with polymyxin E
Procedure, shortened: as §1

[4] = tested on: ATCC9027 strain (Pseudomonas aeruginosa); assay: as above; set-up: key: FIC≤0.5 synergy; 0.5–1 additive; 1–2 indifferent; ≥2 antagonism; settings: combined with polymyxin E
Procedure, shortened: as §1

[5] = tested on: ATCC25922 strain (Escherichia coli); assay: Broth microdilution, antibacterial activity of the compound used alone
Description: (§2) The broth microdilution method was used to test the antibacterial effects of the compounds of the present invention against various Gram-negative bacterial strains when used alone.

[6] = tested on: ATCC19606 strain (Acinetobacter baumannii); assay: as above
Description: as §2

[7] = tested on: ATCC13883 strain (Klebsiella pneumoniae); assay: as above
Description: as §2

[8] = tested on: ATCC9027 strain (Pseudomonas aeruginosa); assay: as above
Description: as §2

Row | Compound | Synergistic activity (FIC value) ATCC25922 [1] | Synergistic activity (FIC value) ATCC19606 [2] | Synergistic activity (FIC value) ATCC13883 [3] | Synergistic activity (FIC value) ATCC9027 [4] | Antibacterial activity of the compound of Formula I, ATCC25922 [5] | Antibacterial activity of the compound of Formula I, ATCC19606 [6] | Antibacterial activity of the compound of Formula I, ATCC13883 [7] | Antibacterial activity of the compound of Formula I, ATCC9027 [8]
1 | Clc1cccc(-c2csc(N=C3NCCCN3)n2)c1Cl [Compound I-184] | 0.5 | 0.28 | 0.25 | 0.63 | 256 µg/mL | 256 µg/mL | 256 µg/mL | 256 µg/mL
2 | Clc1cccc(-c2nc(N=C3NCCCN3)sc2Br)c1 [Compound I-185] | 1.25 | 0.75 | 1.25 | 1.25 | 256 µg/mL | 256 µg/mL | 256 µg/mL | 256 µg/mL
3 | FC(F)(F)c1cc(-c2nc(N=C3NCCCN3)sc2Cl)ccc1Cl [Compound I-186] | 0.52 | 0.13 | 0.19 | 1.25 | 256 µg/mL | 256 µg/mL | 256 µg/mL | 256 µg/mL
4 | Clc1cc(Cl)cc(-c2csc(N=C3NCCCN3)n2)c1 [Compound I-187] | 0.56 | 0.25 | 0.31 | 0.5 | 128 µg/mL | 256 µg/mL | 128 µg/mL | 64 µg/mL
5 | Oc1c(Cl)cc(-c2csc(N=C3NCCCN3)n2)cc1Cl [Compound I-188] | 1.25 | 0.25 | 1.25 | 0.52 | 256 µg/mL | 256 µg/mL | 256 µg/mL | 256 µg/mL
6 | c1ccn2c(-c3coc(N=C4NCCCN4)n3)ccc2c1 [Compound I-189] | 0.5 | 0.28 | 0.25 | 0.63 | 256 µg/mL | 256 µg/mL | 256 µg/mL | 256 µg/mL
7 | CSc1cc2ccccn2c1-c1c[nH]c(N=C2NCCCN2)n1 [Compound I-190] | 1.25 | 0.75 | 1.25 | 1.25 | 256 µg/mL | 256 µg/mL | 256 µg/mL | 256 µg/mL
8 | CSc1cc2c(C)cccn2c1-c1c[se]c(N=C2NCCCN2)n1 [Compound I-191] | 0.52 | 0.13 | 0.19 | 0.51 | 256 µg/mL | 256 µg/mL | 256 µg/mL | 256 µg/mL
9 | CSc1cc2cc(C)ccn2c1-c1coc(N=C2NCCCN2)n1 [Compound I-192] | 0.38 | 0.5 | 0.38 | 0.63 | 256 µg/mL | 256 µg/mL | 256 µg/mL | 256 µg/mL
10 | CCc1sc(N=C2NCCCN2)nc1-c1c(SC)cc2ccc(C)cn12 [Compound I-193] | 0.53 | 1.25 | 1.25 | 1.25 | 256 µg/mL | 256 µg/mL | 256 µg/mL | 256 µg/mL
11 | CSc1cc2cccc(C)n2c1-c1csc(N=C2NCCCN2)n1 [Compound I-194] | 0.5 | 1.25 | 1.25 | 0.63 | 128 µg/mL | 256 µg/mL | 128 µg/mL | 64 µg/mL
12 | CSc1cc2cc(C)cc(C)n2c1-c1nc(N=C2NCCCN2)sc1C [Compound I-195] | 0.31 | 0.14 | 0.25 | 0.52 | 256 µg/mL | 256 µg/mL | 256 µg/mL | 256 µg/mL
13 | CSc1cc2c(Cl)cccn2c1-c1nc(N=C2NCCCN2)sc1Cl [Compound I-196] | 0.52 | 0.13 | 0.19 | 1.25 | 256 µg/mL | 256 µg/mL | 256 µg/mL | 256 µg/mL
14 | CCc1oc(N=C2NCCCN2)nc1-c1c(SC)cc2cc(Cl)cc(Cl)n12 [Compound I-197] | 0.27 | 0.31 | 0.25 | 0.52 | 256 µg/mL | 256 µg/mL | 256 µg/mL | 256 µg/mL
15 | O=C(Nc1ccccc1)Nc1cccc(-c2nc(N=C3NCCCN3)sc2Br)c1 [Compound I-198] | 0.5 | 0.75 | 1.25 | 1.25 | 128 µg/mL | 256 µg/mL | 128 µg/mL | 64 µg/mL
16 | Cc1ccc(NC(=O)Nc2cccc(-c3c[nH]c(N=C4NCCCN4)n3)c2)c(C)c1 [Compound I-199] | 0.51 | 0.16 | 0.51 | 0.75 | 256 µg/mL | 256 µg/mL | 256 µg/mL | 256 µg/mL
17 | O=C(Nc1cccc(-c2coc(N=C3NCCCN3)n2)c1)Nc1ccc(Cl)cc1Cl [Compound I-200] | 1.25 | 0.25 | 0.53 | 0.53 | 256 µg/mL | 256 µg/mL | 256 µg/mL | 256 µg/mL
